Data on 13 molecules can be found in patent US20030096379A1, “Method for producing tryptamine derivatives” (priority 2001, published 2003).

The target of assay [1] is T1, pig kidney aromatic amino acid decarboxylase (pkAAAD) (Sus scrofa, UniProt P80041).
T1 construct: Frozen tissue was partially thawed in lysis buffer, then it was extracted and partially purified; from tissue; host or cells: pig kidney
T1 sequence (P80041 1-486): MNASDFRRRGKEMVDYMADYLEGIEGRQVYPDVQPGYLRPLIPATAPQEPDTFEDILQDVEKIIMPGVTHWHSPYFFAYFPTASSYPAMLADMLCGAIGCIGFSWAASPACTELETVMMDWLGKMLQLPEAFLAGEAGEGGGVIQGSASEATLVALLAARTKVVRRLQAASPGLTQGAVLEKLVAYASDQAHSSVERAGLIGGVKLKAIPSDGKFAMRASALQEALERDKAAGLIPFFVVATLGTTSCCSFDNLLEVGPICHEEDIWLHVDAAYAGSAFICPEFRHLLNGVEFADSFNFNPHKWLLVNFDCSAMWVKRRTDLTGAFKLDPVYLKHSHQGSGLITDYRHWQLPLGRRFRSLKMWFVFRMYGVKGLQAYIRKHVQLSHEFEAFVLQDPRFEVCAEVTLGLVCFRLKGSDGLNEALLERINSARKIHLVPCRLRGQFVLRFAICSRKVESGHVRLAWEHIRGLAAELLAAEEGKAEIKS
The assay is described as follows: Substrate screen for tryptophan decarboxylation, pkAAAD. In kind it is biochemical. Also noted: key: +: a clear ninhydrin-positive spot at the Rf of standard tryptophan derivatives after 16-65 h; (+): a weak spot in the product region; −: no product observed; NR: experiment not run. Particulars: tryptophan derivative, PLP, pH 7.5, 37° C.

The target in assay [2] is T2, synAAAD (synthetic gene based on pkAAAD protein sequence) (Sus scrofa, UniProt P80041).
T2 construct: made in house; host or cells: E. coli (pET-15 vector)
T2 sequence (P80041 1-486): T1 sequence (P80041 1-486)
The assay is described as follows: Substrate screen for tryptophan decarboxylation, SynAAAD. Format: biochemical. Also on record: key: +: a clear ninhydrin-positive spot at the Rf of standard tryptophan derivatives after 16-65 h; (+): a weak spot in the product region; −: no product observed; NR: experiment not run. Conditions: tryptophan derivative, PLP, pH 7.5, 37° C. The procedure: (§1) A mixture containing 1 μmole of the tryptophan derivative, 0.05 μmole of PLP and 50 μmol of L-serine in 40 mM pH 7.5 KPi buffer was warmed to 37° C., then enzyme solution was added to give a final volume of 1 mL. Aliquots (100 HL) were quenched at intervals and were evaporated in a Savant Speed-vac as in Example 6. For TLC analysis, CH2Cl2/EtOH/H2O/HOAc 49:49:1:1 was used as the solvent. The plates were visualized with short-wave UV light and ninhydrin as in Example 6.
(§2) HPLC techniques were used to monitor the decarboxylation of substituted tryptophans. Mass spectral analysis of the collected HPLC peaks was used to confirm the identity of several tryptamine derivatives, as shown in Table 5.

In assay [3] the target is T3, tryptophan decarboxylase TDC1 (Camptotheca acuminata, UniProt P93082).
T3 construct: made in house; host or cells: E. coli DH5α (pKK233 plasmid from C. Nessler)
T3 sequence (P93082 1-502): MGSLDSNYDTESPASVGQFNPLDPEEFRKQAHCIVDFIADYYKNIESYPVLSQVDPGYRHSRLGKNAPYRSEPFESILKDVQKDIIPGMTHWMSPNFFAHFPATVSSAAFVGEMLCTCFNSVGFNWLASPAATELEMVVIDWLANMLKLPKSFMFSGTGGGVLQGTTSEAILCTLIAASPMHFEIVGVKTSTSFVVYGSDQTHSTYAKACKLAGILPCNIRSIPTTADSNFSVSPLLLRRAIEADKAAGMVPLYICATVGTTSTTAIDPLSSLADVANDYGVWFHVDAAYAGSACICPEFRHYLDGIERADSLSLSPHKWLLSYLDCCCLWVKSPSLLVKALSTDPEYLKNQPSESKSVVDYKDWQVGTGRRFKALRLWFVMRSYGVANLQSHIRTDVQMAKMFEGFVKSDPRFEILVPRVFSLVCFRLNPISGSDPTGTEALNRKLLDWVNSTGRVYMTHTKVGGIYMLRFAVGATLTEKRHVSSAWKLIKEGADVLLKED
The assay is described as follows: Substrate screen for tryptophan decarboxylation, TDC1. Conditions: tryptophan derivative, PLP, pH 7.5, 37° C. In kind it is biochemical, C. accuminata. Also on record: key: +: a clear ninhydrin-positive spot at the Rf of standard tryptophan derivatives after 16-65 h; (+): a weak spot in the product region; −: no product observed; NR: experiment not run. The procedure:
as §1, §2

Assay [4] addresses T4, tryptophan decarboxylase TDC2 (Camptotheca acuminata, UniProt P93083).
T4 construct: made in house; host or cells: E. coli DH5α (pKK233 plasmid from C. Nessler)
T4 sequence (P93083 1-498): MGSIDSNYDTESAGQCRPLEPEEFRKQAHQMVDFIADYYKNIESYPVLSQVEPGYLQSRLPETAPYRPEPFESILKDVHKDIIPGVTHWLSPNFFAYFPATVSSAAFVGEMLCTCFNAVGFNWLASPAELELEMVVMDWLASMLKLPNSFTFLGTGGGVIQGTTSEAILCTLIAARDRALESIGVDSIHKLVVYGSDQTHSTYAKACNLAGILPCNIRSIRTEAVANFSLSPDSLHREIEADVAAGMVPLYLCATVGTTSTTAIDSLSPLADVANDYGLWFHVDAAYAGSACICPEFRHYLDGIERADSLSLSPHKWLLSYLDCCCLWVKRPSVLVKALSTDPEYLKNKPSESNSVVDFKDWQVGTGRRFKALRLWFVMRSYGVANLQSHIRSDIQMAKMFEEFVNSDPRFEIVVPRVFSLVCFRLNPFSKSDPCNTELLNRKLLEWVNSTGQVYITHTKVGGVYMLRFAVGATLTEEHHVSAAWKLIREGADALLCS
The assay is described as follows: Substrate screen for tryptophan decarboxylation, TDC2. Format: biochemical, C. accuminata. Also noted: key: +: a clear ninhydrin-positive spot at the Rf of standard tryptophan derivatives after 16-65 h; (+): a weak spot in the product region; −: no product observed; NR: experiment not run. Particulars: tryptophan derivative, PLP, pH 7.5, 37° C. How it is done: as §1, §2

The subject of the next assay is TrpBA and TDC1. The assay is described as follows: Coupled enzyme synthesis monitored by HPLC. Format: biochemical. Conditions: L-serine, PLP, pH 8.5 phosphate buffer, 37° C. How it is done: To a solution containing L-serine (25 μmol), pyridoxal phosphate (0.05 μmol) and TrpBA (0.02 to 1.5 units, depending on the substrate), TDC1 (0.2 mL 0.6 units) and KPi buffer (0.05 mmol, pH 7.5) in a volume of 0.8 mL were added […] of 5 mM indole derivative in 20% v/v ethanol/water. The mixture was incubated at 37° C. and aliquots were quenched and analyzed as described for Example 8. In cases where tryptamine and/or tryptophan standards were not available, peaks were collected for mass spectral analysis. Electrospray mass spectral analyses were performed.
Mixtures containing indole, L-serine, PLP and TDC1 were incubated in pH 8.5 phosphate buffer, analyzing aliquots by HPLC, as described in Example 12.
The procedure used in Example 24 was carried out by substituting indole with 2-methylindole, 4-hydroxymethylindole, 5-methoxy-, 5-hydroxymethyl-, 5-methoxycarbonyl, and 5,6-dimethoxyindole.

In the next assay the target is T5, TrpBA (Escherichia coli, UniProt P0A879).
T5 construct: made in house; host or cells: E. coli LMG194 (pBAD) or BL-21 (pET)
The assay is described as follows: Relative rates of tryptophan derivative synthesis by HPLC, TrpBA. Format: biochemical, E. coli. Conditions: initial rate estimated by HPLC, indole = 100%, L-serine. How it is done:
Reaction mixtures were prepared as in Example 6 and were incubated at 37° C. Aliquots (100 μL) were removed and quenched by addition of to 300 μL of 0.5 M sodium citrate, pH 3.0 in 10% v/v acetonitrile/water in 2 ml microcentrifuge tubes. Following centrifugation for 10 min at 13,000×g, the supernatants were passed through 0.45μ membrane filters prior to HPLC analysis of 20 μL of filtrate.
TnA reactions were run with L-serine as the 3-carbon substrate.

T5 sequence (P0A879 whole entry): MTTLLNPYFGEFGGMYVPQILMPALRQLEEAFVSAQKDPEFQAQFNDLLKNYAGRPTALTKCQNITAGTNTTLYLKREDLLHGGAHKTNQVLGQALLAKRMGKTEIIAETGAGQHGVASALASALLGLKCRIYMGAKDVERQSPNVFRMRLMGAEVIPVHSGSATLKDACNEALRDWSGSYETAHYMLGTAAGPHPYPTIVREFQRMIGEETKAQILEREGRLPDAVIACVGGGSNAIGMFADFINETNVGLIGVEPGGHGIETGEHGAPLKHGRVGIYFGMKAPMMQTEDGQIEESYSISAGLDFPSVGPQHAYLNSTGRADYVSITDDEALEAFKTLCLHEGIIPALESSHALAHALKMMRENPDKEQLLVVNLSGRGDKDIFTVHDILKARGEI
T5 sequence (P0A877 whole entry, further chain): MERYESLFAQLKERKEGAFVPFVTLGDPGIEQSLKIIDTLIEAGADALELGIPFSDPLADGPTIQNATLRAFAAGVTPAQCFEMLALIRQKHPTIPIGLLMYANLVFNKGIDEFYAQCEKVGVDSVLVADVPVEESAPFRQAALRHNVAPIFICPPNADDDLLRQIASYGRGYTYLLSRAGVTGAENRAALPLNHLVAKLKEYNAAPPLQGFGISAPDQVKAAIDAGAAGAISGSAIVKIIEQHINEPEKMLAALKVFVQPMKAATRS

Turning to `Cc1ccc2c(CC(N)C(=O)O)c[nH]c2c1` (racemic) [DL-6-methyl-trp], in assay [1], the “pkAAAD (decarboxylation substrate screen)” value (“pkAAAD” for short) is recorded as “−”. Besides, the “SynAAAD (decarboxylation substrate screen)” value (“SynAAAD” for short) in assay [2] was “(+)”. The “TDC1 (decarboxylation substrate screen)” value in assay [3] is “+”. The “TDC2 (decarboxylation substrate screen)” value in assay [4] is recorded as “+”.

As to `NC(Cc1c[nH]c2cc(F)ccc12)C(=O)O` (racemic) [DL-6-fluoro-trp], the “pkAAAD” value in assay [1] is given as “−”. In addition, the “SynAAAD” value in assay [2] is given as “−”. For the same molecule, in assay [3], the “TDC1 (decarboxylation substrate screen)” value was “−”. Also, the “TDC2 (decarboxylation substrate screen)” value in assay [4] was “−”.

In the case of `Cc1cccc2[nH]cc(CC(N)C(=O)O)c12` (racemic) [DL-4-methyl-trp], the “pkAAAD” value in assay [1] is recorded as “−”. The “SynAAAD” value in assay [2] is on record as “+”. In addition, the “TDC1 (decarboxylation substrate screen)” value in assay [3] is “+”. Further, the “TDC2 (decarboxylation substrate screen)” value in assay [4] is listed as “+”.

Consider `NC(Cc1c[nH]c2ncccc12)C(=O)O` (racemic) [DL-7-aza-trp], for which, in assay [1], the “pkAAAD” value is on record as “−”. The “SynAAAD” value in assay [2] is reported as “−”.

Regarding `N[C@@H](Cc1c[nH]c2cccc(CO)c12)C(=O)O` [L-4-(hydroxymethyl)-trp, 4-(Hydroxymethyl)-L-tryptophan], the “pkAAAD” value in assay [1] is listed as “(+)”. In addition, the “SynAAAD” value in assay [2] is given as “+”. The “TDC1 (decarboxylation substrate screen)” value in assay [3] is given as “+”. In addition, the “TDC2 (decarboxylation substrate screen)” value in assay [4] is recorded as “+”.

Consider `Cc1cccc2c(CC(N)C(=O)O)c[nH]c12` (racemic) [DL-7-methyl-trp], for which the “pkAAAD” value in assay [1] is recorded as “−”. In addition, in assay [2], the “SynAAAD” value was “(+)”. For the same molecule, the “TDC1 (decarboxylation substrate screen)” value in assay [3] is given as “+”. Besides, the “TDC2 (decarboxylation substrate screen)” value in assay [4] is recorded as “+”.

For `NC(Cc1c[nH]c2ccc(F)cc12)C(=O)O` (racemic) [DL-5-fluoro-trp], the “pkAAAD” value in assay [1] was “−”. The “SynAAAD” value in assay [2] is on record as “(+)”. Moreover, the “TDC1 (decarboxylation substrate screen)” value in assay [3] is on record as “+”. The “TDC2 (decarboxylation substrate screen)” value in assay [4] was “(+)”.

“5-(Methoxycarbonylamino)indole [5-(methoxycarbonyl)amino-]”: in the assay with TrpBA and TDC1, the “formation of tryptophan derivative and tryptamine (HPLC peaks)” value is recorded as “a second peak representing formation of tryptamine”.

In the case of `N[C@@H](Cc1c[nH]c2ccc(O)cc12)C(=O)O` [L-5-hydroxy-trp, L-5-hydroxytryptophan, reference compound], the “pkAAAD” value in assay [1] is given as “+”. In addition, the “SynAAAD” value in assay [2] was “+”. In addition, in assay [3], the “TDC1 (decarboxylation substrate screen)” value is “+”.

`Cc1ccc2[nH]ccc2c1` [5CH3]: the “Relative rate (TrpBA)” value on TrpBA is 0.55%.

As to `Cc1ccc2[nH]cc(CC(N)C(=O)O)c2c1` (racemic) [DL-5-methyl-trp], the “pkAAAD” value in assay [1] is on record as “−”. The “SynAAAD” value in assay [2] was “−”. The “TDC1 (decarboxylation substrate screen)” value in assay [3] is “+”. Further, the “TDC2 (decarboxylation substrate screen)” value in assay [4] is recorded as “+”.

For the molecule `COC(=O)Nc1ccc2[nH]cc(C[C@H](N)C(=O)O)c2c1` [L-5-(methoxycarbonyl)-amino-trp, 5-(Methoxycarbonyl)amino-L-tryptophan], the “pkAAAD” value in assay [1] was “−”. Moreover, the “SynAAAD” value in assay [2] is reported as “+”. Moreover, the “TDC1 (decarboxylation substrate screen)” value in assay [3] is recorded as “+”. Besides, the “TDC2 (decarboxylation substrate screen)” value in assay [4] is on record as “+”.

As to `NC(Cc1c[nH]c2cccc(F)c12)C(=O)O` (racemic) [DL-4-fluoro-trp], in assay [1], the “pkAAAD” value is reported as “+”. Besides, the “SynAAAD” value in assay [2] is on record as “(+)”. Besides, the “TDC1 (decarboxylation substrate screen)” value in assay [3] is “+”. In addition, in assay [4], the “TDC2 (decarboxylation substrate screen)” value is recorded as “+”.
